ChEMBL document CHEMBL5537180, “Discovery of Novel Aminobutanoic Acid-Based ASCT2 Inhibitors for the Treatment of Non-Small-Cell Lung Cancer” (J Med Chem, 2024)
The source made the active and inactive calls. No cut-off for these calls is given here.

Key:
NSCLC [1] = experiment: Antiproliferative activity against human NSCLC cells cultured as 2566 organoids assessed as cell viability incubated for 96 hrs by Celltiter-glo viability assay; type: functional, cell-based
[2] = Metabolic stability in rat liver microsomes assessed as half life; type: ADME, Microsome
[3] = target: T1, Neutral amino acid transporter B(0) (Homo sapiens) (UniProt Q15758); experiment: Inhibition of ASCT2 in human A549 cells assessed as reduction in [13C]-Gln uptake at 50 uM relative to control; type: cell-based
T1 sequence (whole entry): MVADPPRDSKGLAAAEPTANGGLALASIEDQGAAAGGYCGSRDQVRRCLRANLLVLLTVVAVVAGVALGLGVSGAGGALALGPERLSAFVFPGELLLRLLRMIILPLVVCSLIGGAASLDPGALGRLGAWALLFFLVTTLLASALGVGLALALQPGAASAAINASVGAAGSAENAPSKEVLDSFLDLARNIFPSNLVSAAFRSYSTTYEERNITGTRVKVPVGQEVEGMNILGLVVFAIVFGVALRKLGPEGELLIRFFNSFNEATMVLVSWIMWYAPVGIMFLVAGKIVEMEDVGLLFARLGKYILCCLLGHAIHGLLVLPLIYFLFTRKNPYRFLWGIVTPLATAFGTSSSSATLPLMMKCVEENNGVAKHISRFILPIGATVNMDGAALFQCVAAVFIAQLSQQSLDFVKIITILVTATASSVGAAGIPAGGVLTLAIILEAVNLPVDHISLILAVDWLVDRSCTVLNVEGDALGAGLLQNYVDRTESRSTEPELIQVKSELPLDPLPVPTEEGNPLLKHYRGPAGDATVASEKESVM

A549 [4] = experiment: Induction of oxidative stress in human A549 cells assessed as upregulation of ROS production incubated for 24 hrs by DCFH-DA staining based flow cytometry analysis; type: functional, cell-based; settings: dose 5-10 µM
[5] = AUC (0 to t) in Sprague-Dawley rat at 10 mg/kg, ip incubated for 24 hrs by LC-MS/MS analysis; type: ADME, organism-based; settings: in vivo
[6] = Toxicity in BALB/c nude mouse assessed as effect on spleen at 25 to 50 mg/kg, ip measured after 3 weeks by H and E staining based analysis; type: organism-based; settings: in vivo, 504 h, dose 25-50 mg/kg
A549 [7] = experiment: Induction of autophagy in human A549 cells assessed as downregulation of p62 level at 5 to 10 uM measured after 24 hrs by Western blot analysis; type: functional, cell-based; settings: dose 5-10 µM
A549 [8] = experiment: Induction of apoptosis in human A549 cells assessed as caspase 3 activation at 5 to 10 uM incubated for 24 hrs by Western blot analysis; type: functional, cell-based; settings: dose 5-10 µM
[9] = Tmax in Sprague-Dawley rat at 10 mg/kg, ip incubated for 24 hrs by LC-MS/MS analysis; type: ADME, organism-based; settings: in vivo
A549 [10] = experiment: Induction of autophagy in human A549 cells assessed as increase in LC3 II expression at 5 to 10 uM measured after 24 hrs by Western blot analysis; type: functional, cell-based; settings: dose 5-10 µM
[11] = Toxicity in BALB/c nude mouse assessed as effect on heart at 25 to 50 mg/kg, ip measured after 3 weeks by H and E staining based analysis; type: organism-based; settings: in vivo, 504 h, dose 25-50 mg/kg
A549 [12] = experiment: Antitumor activity against human A549 cells xenografted in BALB/c nude mouse assessed as tumor growth inhibition at 25 mg/kg, ip measured daily for 3 weeks relative to control; type: functional; settings: A549, 504 h, read-out: TGI
[13] = target: T2, Sodium-coupled neutral amino acid symporter 2 (Homo sapiens) (UniProt Q96QD8); experiment: Inhibition of SNAT2 (unknown origin) overexpressed in HEK293 cells assessed as reduction in [13C]-Gln uptake preincubated for 5 mins followed by substrate addition and measured after 15 mins; type: cell-based; settings: time 20.0 min
T2 sequence (whole entry): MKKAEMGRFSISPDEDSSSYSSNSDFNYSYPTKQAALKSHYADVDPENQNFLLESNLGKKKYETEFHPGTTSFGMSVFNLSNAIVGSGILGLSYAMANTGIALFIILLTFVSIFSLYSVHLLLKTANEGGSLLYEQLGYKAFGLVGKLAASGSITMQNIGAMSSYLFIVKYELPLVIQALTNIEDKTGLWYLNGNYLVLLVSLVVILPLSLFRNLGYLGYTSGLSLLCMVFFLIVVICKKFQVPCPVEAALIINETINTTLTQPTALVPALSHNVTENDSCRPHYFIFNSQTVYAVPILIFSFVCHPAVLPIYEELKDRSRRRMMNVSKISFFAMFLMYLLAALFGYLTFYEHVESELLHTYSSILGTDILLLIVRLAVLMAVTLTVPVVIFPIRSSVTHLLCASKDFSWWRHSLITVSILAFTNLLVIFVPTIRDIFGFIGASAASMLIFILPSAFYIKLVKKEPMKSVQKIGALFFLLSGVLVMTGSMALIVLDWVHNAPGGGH

[14] = Toxicity in BALB/c nude mouse assessed as effect on body weight at 25 to 50 mg/kg, ip measured daily for 3 weeks; type: organism-based; settings: in vivo, 504 h, dose 25-50 mg/kg
[15] = target: Large neutral amino acids transporter small subunit 1 (Homo sapiens) (UniProt Q01650); experiment: Inhibition of LAT1 (unknown origin) overexpressed in HEK293 cells assessed as reduction in [13C]-Gln uptake preincubated for 5 mins followed by substrate addition and measured after 15 mins; type: cell-based; settings: time 20.0 min
Large neutral amino acids transporter small subunit 1 (Homo sapiens), sequence (Q01650 whole entry): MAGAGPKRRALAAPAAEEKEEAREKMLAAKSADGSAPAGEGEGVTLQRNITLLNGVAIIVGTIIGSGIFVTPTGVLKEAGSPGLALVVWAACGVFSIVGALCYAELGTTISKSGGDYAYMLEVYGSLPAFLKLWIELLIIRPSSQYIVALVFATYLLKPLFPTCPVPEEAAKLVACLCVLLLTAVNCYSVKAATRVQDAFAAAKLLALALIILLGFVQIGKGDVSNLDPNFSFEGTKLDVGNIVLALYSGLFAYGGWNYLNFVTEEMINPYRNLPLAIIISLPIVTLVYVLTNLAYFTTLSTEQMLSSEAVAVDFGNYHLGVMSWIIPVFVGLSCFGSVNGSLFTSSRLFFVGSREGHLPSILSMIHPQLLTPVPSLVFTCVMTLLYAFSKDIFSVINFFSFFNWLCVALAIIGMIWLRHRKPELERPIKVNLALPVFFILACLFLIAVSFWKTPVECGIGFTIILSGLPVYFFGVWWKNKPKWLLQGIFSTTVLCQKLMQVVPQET

[16] = target: T3, Neutral amino acid transporter B(0) (Homo sapiens, UniProt Q15758); experiment: Inhibition of ASCT2 in HEK293 cells assessed as reduction in glutamine uptake preincubated for 5 mins followed by substrate addition and measured after 15 mins; type: cell-based
T3 sequence (Q15758 whole entry): T1 sequence (whole entry)

[17] = Metabolic stability in rat liver microsomes assessed as intrinsic clearance; type: ADME, Microsome; settings: read-out: CLH
[18] = target: T3, Neutral amino acid transporter B(0); experiment: Inhibition of ASCT2 in human A549 cells assessed as reduction in glutamine uptake preincubated for 5 mins followed by substrate addition and measured after 15 mins; type: cell-based
[19] = MRT (0 to infinity) in Sprague-Dawley rat at 10 mg/kg, ip incubated for 24 hrs by LC-MS/MS analysis; type: ADME, organism-based; settings: in vivo
A549 [20] = experiment: Induction of autophagy in human A549 cells assessed as downregulation of p70S6K level at 5 to 10 uM measured after 24 hrs by Western blot analysis; type: functional, cell-based; settings: dose 5-10 µM
NSCLC [21] = experiment: Antiproliferative activity against human NSCLC cells cultured as 2422 organoids assessed as cell viability incubated for 96 hrs by Celltiter-glo viability assay; type: functional, cell-based
[22] = Toxicity in BALB/c nude mouse assessed as effect on liver at 25 to 50 mg/kg, ip measured after 3 weeks by H and E staining based analysis; type: organism-based; settings: in vivo, 504 h, dose 25-50 mg/kg
A549 [23] = experiment: Induction of apoptosis in human A549 cells assessed as downregulation of c-Myc expression at 5 to 10 uM incubated for 24 hrs by Western blot analysis; type: functional, cell-based; settings: dose 5-10 µM
A549 [24] = experiment: Inhibition of AKT/mTORC signalling in human A549 cells assessed as decrease in mTORC1 level at 5 to 10 uM measured after 24 hrs by Western blot analysis; type: cell-based; settings: dose 5-10 µM
A549 [25] = experiment: Inhibition of Gln uptake in human A549 cells assessed as reduction in succinate level incubated for 24 hrs by LC-MS/MS analysis; type: functional, cell-based
NSCLC [26] = experiment: Antiproliferative activity against human NSCLC cells cultured as 2862 organoids assessed as cell viability incubated for 96 hrs by Celltiter-glo viability assay; type: functional, cell-based

| half-life [2] [h] | inhibition [3] [%] | AUC(0-t) at 24 h [5] [ng·h/mL] | Tmax [9] [h] | inhibition [13] | inhibition [15] | IC50 [16] [µM] | microsomal CLint [17] [µL/min/mg] | IC50 [18] [µM] | MRT inf [19] [h] | SMILES | IC50 (NSCLC [1]) [µM] | Activity (A549 [4]) | Activity [6] | Activity (A549 [7]) | Activity (A549 [8]) | Activity (A549 [10]) | Activity [11] | inhibition in vivo at 25 mg/kg (A549 [12]) [%] | Activity [14] | Activity (A549 [20]) | further results |
| --- | --- | --- | --- | --- | --- | --- | --- | --- | --- | --- | --- | --- | --- | --- | --- | --- | --- | --- | --- | --- | --- |
| 2.78 | 55.6 | 13800 | 5.33 | inactive | inactive | 5.14 | 8.27 | 19.2 | 20.7 | CC(C)(C)c1ccc(OCC#Cc2ccccc2)c(CN(CC[C@H](N)C(=O)O)Cc2cc(C(C)(C)C)ccc2OCC#Cc2ccccc2)c1 | 8.08 | Dose-Dependent Effect | Toxic | Active | Active | Active | Toxic | 70 | Non-Toxic | Active | IC50 (NSCLC [21]): 0.12 µM; Activity [22]: Toxic; Activity (A549 [23]): Active; inhibition (A549 [24]): Active; inhibition (A549 [25]): Active; IC50 (NSCLC [26]): 2.85 µM |
| 0.619 | 90.8 | 2670 | 1.17 | inactive | inactive | 3.5 | 37.5 | 5.6 | 13.7 | N[C@@H](CCN(Cc1ccccc1OCC#Cc1ccc(Cl)cc1)Cc1ccccc1OCC#Cc1ccc(Cl)cc1)C(=O)O | 5.09 | Dose-Dependent Effect | Toxic | Active | Active | Active | Toxic | 65 | Non-Toxic | Active | IC50 (NSCLC [21]): 7.34 µM; Activity [22]: Toxic; Activity (A549 [23]): Active; inhibition (A549 [24]): Active; inhibition (A549 [25]): Active; IC50 (NSCLC [26]): 5.21 µM |
